Measurements: US20100272642A1, “PET PROBE HAVING AN ALKOXY GROUP SUBSTITUTED BY FLUORINE AND HYDROXY GROUP” (TOHOKU UNIVERSITY, priority 2007, published 2010)
“Also recorded” adds a separate entry of the source.

What was measured:
amyloid β protein = target: T1, amyloid β protein (Homo sapiens, UniProt P05067); assay: Staining test on the brain section of patients with Alzheimer's disease; assay type: binding; settings: 100 μM compound in 50% ethanol, 10 minutes, fluorescence microscope
T1 construct: tissue Choju Medical Institute in Fukushimura Hospital; host or cells: Paraffin-embedded post-mortem human brain sections (temporal lobe or hippocampus)
Description: The procedure of […] of the compounds of the present invention on the brain section of patients with Alzheimer's disease is explained as follows.
(1) The brain samples from the temporal lobe or hippocampus of patients pathologically definitely diagnosed as having Alzheimer's disease and normal elderly individuals were used. The samples were obtained from Choju Medical Institute in Fukushimura Hospital, our collaborative research institute, and the consent for the use for research purpose was obtained from the patients' deceased family members (Fukushimura Hospital, Ethic Committee Approval No. 20).
(2) The brain tissue embedded in the paraffin was thinly sectioned into 6 or 8 μm in thickness, extended on the slide glass, and dried. The paraffined brain section was deparaffined by washing with xylene 10 minutes×2, 100% ethanol 5 minutes×2, 90% ethanol 5 minutes, and running water 10 minutes in this order.
(3) As the pretreatment of staining by the compound of the present invention, the treatment to remove autofluorescence by lipofuscin was conducted. […]
(4) From 100 μM of the compound solution of the present invention dissolved in 50% ethanol, about 150 μl was added dropwise, and was reacted for 10 minutes. After being soaked in the tap water 5 times, it was encapsulated with Flour Save Reagent (Calbiochem) and examined with a fluorescence microscope (Nikon, Eclipse 80i). […]

[1] = Evaluation of blood-brain barrier permeability and osseous accumulation of the [18F] labeled compound in mice; assay type: in vivo, mouse; settings: for % ID/g or ml (mean ± standard deviation), Blood plasma / % ID/g or ml (mean ± standard deviation), Bone / % ID/g or ml (mean ± standard deviation), Brain: male ICR mice, tail vein administration; for % ID/g or ml (mean ± standard deviation), Bone: bone (femur); for osseous accumulation: mice, 2, 30, 60 minutes after administration, in words; for defluorination in vivo / wash-out from the brain: mice; for defluorination in vivo: suggested from osseous accumulation; for wash-out from the brain: compared with [18F]BF-227
Experimental: The physiological saline solution containing [^18F] BF-837 or [^18F] THK-853 was administered into the tail vein of the male ICR mice (6-7 weeks of age), and blood-brain barrier permeability and osseous accumulation of each labeled compound were evaluated based on accumulation of radioactive in the brain tissue and the bone tissue at 2, 30, 60 minutes after.
The radiochemical purity of the used physiological saline containing the labeled compound used was 95% or greater, and specific activity was 18.5 to 148 GBq/μmol, and 1.11-2.22 MBq of the labeled compound per mouse was administered. In the evaluation of radiation accumulation, the ratio of radiation per unit weight of the evaluation tissue against the whole radiation administered (% Injected Dose/g of tissue; % ID/g) was used as the index. For measurement of the radiation, the gamma counter (1480 WIZARD, PerkinElmer, Inc.) was used. The experimental procedure was as follows. The labeled compound was administered into the caudal vein and dislocation in the cervical spine of the mice was conducted under the ether anesthesia at 2, 30, and 60 minutes after, and after promptly harvesting the blood from the heart, the whole brain (including the cerebellum, brain stem) and the femur were removed.

T1 sequence (P05067 672-713 limits assumed): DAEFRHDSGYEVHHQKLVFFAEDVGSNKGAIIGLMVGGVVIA

Row | SMILES | binding to amyloid β protein in the brain section (amyloid β protein) | % ID/g or ml (mean ± standard deviation), Blood plasma ([1]; 2 minutes after) | % ID/g or ml (mean ± standard deviation), Blood plasma ([1]; 30 minutes after) | % ID/g or ml (mean ± standard deviation), Blood plasma ([1]; 60 minutes after) | % ID/g or ml (mean ± standard deviation), Bone ([1]; 2 minutes after) | % ID/g or ml (mean ± standard deviation), Bone ([1]; 30 minutes after) | % ID/g or ml (mean ± standard deviation), Bone ([1]; 60 minutes after) | % ID/g or ml (mean ± standard deviation), Brain ([1]; 2 minutes after) | % ID/g or ml (mean ± standard deviation), Brain ([1]; 30 minutes after) | % ID/g or ml (mean ± standard deviation), Brain ([1]; 60 minutes after) | defluorination in vivo [1] | wash-out from the brain [1] | osseous accumulation [1]
1 | CNc1ccc(-c2nc3ccc(OC(CO)CF)cc3s2)cc1 (stereo not shown) [THK-837] | bound to amyloid β protein | – | – | – | – | – | – | – | – | – | – | – | –
2 | CN(C)c1ncc(C=Cc2nc3ccc(OCCF)cc3o2)s1 [[^18F]BF-227, 2-[2-(2-dimethylaminothiazole-5-yl)ethenyl]-6-(2-fluoroethoxy)benzoxazole, reference compound] | – | 2.93 ± 0.08 % ID/g or ml | 2.14 ± 0.17 % ID/g or ml | 2.09 ± 0.15 % ID/g or ml | 1.59 ± 0.27 % ID/g or ml | 4.38 ± 1.24 % ID/g or ml | 7.04 ± 0.75 % ID/g or ml | 6.05 ± 0.45 % ID/g or ml | 1.91 ± 0.05 % ID/g or ml | 1.67 ± 0.14 % ID/g or ml | easily subjected to defluorination | – | time dependence marked accumulation was observed
3 | CNc1ccc(/C=C/c2ccc(OC(CO)CF)cc2)cc1 (stereo not shown) [THK-853] | bound to amyloid β protein | – | – | – | – | – | – | – | – | – | – | – | –

Second part, led by results:

Row | binding to amyloid β protein in the brain section (amyloid β protein) | % ID/g or ml (mean ± standard deviation), Blood plasma ([1]; 2 minutes after) | % ID/g or ml (mean ± standard deviation), Blood plasma ([1]; 30 minutes after) | % ID/g or ml (mean ± standard deviation), Blood plasma ([1]; 60 minutes after) | % ID/g or ml (mean ± standard deviation), Bone ([1]; 2 minutes after) | % ID/g or ml (mean ± standard deviation), Bone ([1]; 30 minutes after) | % ID/g or ml (mean ± standard deviation), Bone ([1]; 60 minutes after) | % ID/g or ml (mean ± standard deviation), Brain ([1]; 2 minutes after) | % ID/g or ml (mean ± standard deviation), Brain ([1]; 30 minutes after) | % ID/g or ml (mean ± standard deviation), Brain ([1]; 60 minutes after) | defluorination in vivo [1] | wash-out from the brain [1] | SMILES | osseous accumulation [1]
4 | – | 3.30 ± 0.17 % ID/g or ml | 1.73 ± 0.26 % ID/g or ml | 1.35 ± 0.77 % ID/g or ml | 1.80 ± 0.17 % ID/g or ml | 1.27 ± 0.11 % ID/g or ml | 1.64 ± 0.12 % ID/g or ml | 6.54 ± 0.19 % ID/g or ml | 0.94 ± 0.08 % ID/g or ml | 0.43 ± 0.03 % ID/g or ml | not subjected to defluorination | clearly more excellent | CNc1ccc(-c2nc3ccc(OC(CO)CF)cc3s2)cc1 (stereo not shown) [[^18F]THK-837] | not observed; also recorded: scarcely observed
5 | – | 2.81 ± 0.37 % ID/g or ml | 2.11 ± 0.50 % ID/g or ml | 1.59 ± 0.12 % ID/g or ml | 1.64 ± 0.19 % ID/g or ml | 0.98 ± 0.20 % ID/g or ml | 0.96 ± 0.04 % ID/g or ml | 7.56 ± 0.87 % ID/g or ml | 1.31 ± 014 % ID/g or ml | 0.59 ± 0.04 % ID/g or ml | not subjected to defluorination | clearly more excellent | CNc1ccc(/C=C/c2ccc(OC(CO)CF)cc2)cc1 (stereo not shown) [[^18F]THK-853] | not observed; also recorded: scarcely observed
